Drawing on patent US20250320206A1, “STAT6 DEGRADERS” (Gilead Sciences, Inc., priority 2024, published 2025), this text covers EC50, DC50 and Emax for 7 compounds.

The subject of experiment [1] is Eotaxin-3 release in human whole blood stimulated with IL-4. Description: Human Whole Blood Eotaxin-3 Assay (IL-4 stimulated eotaxin-3 release). Particulars: IL-4 stimulation, 48 h, values given for compounds with >80% Emax, geometric mean. Type of experiment: cell-based. In outline: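 Lithium-heparin human whole blood preincubated 2 h at 37° C with 4-fold serially diluted compounds (0.5% DMSO), then stimulated with recombinant human IL-4 ([…]) for 48 h. Eotaxin-3 (CCL26) in supernatant quantified by MSD immunoassay.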

The target of a further experiment is T1, STAT6 (Homo sapiens, UniProt P42226).
T1 construct: These cells express endogenous STAT6; host or cells: HeLa LgBiT clone 4.14
T1 sequence (P42226 1-847): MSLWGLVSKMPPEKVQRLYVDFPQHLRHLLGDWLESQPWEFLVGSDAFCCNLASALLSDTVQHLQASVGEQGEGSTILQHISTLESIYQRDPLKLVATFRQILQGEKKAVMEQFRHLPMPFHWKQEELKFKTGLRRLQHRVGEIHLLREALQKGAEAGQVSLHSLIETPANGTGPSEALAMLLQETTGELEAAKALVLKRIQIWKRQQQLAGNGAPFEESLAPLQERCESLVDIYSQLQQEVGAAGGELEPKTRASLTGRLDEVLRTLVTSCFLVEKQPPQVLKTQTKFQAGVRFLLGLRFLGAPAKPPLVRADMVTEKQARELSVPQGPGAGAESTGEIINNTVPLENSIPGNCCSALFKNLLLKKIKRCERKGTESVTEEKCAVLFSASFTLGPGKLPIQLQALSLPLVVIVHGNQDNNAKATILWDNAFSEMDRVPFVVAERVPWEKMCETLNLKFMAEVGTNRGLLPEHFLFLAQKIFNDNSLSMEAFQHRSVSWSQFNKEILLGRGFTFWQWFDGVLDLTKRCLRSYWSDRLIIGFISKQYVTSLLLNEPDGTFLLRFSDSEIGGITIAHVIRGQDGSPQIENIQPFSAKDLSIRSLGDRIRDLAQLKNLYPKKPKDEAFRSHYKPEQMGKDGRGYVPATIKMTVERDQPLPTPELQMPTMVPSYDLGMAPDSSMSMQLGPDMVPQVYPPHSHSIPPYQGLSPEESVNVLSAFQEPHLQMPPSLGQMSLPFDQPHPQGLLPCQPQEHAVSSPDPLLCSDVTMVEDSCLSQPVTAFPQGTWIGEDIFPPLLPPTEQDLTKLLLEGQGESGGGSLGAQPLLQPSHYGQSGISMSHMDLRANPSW
Description: Stat6 Degrader Assay (HiBiT based, HeLa LgBiT clone 4.14). Type of experiment: cell-based. As to conditions: HeLa LgBiT clone 4.14 HiBiT-STAT6, 4-24 h incubation; for DC50: values given for compounds with >80% Emax, geometric mean, read-out: STAT6 degradation DC50. In outline: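 HeLa LgBiT clone 4.14 cells with CRISPR HiBiT-tagged endogenous STAT6, 5000 cells/well, compound dosed then incubated 4-24 h at 37° C, 5% CO2. Nano-Glo substrate added, 0.5 h, luminescence read as non-degraded STAT6. Terfenadine 50 μM (cell kill) defines 100% degradation.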
In general terms: With HiBiT, luminescence reflects the tagged protein that the partner subunit can reach.

In experiment [1], `CNc1cc(=O)n(-c2ccnc3c2cc([C@H](C)N2CC=C(c4c(F)cc(C(=O)N5CCC(CN6CCN(c7ccc8c(c7)C7(CC7)C(=O)N8C7CCC(=O)NC7=O)CC6)CC5)cc4F)CC2)n3C)cc1F` (stereo partly drawn) [Example 3u300, 3-(5′-(4-((1-(3,5-difluoro-4-(1-((S)-1-(4-(5-fluoro-4-(methylamino)-2-oxopyridin-1 (2H)-yl)-1-methyl-1H-pyrrolo[2,3-b]pyridin-2-yl)ethyl)-1,2,3,6-tetrahydropyridin-4-yl)benzoyl)-piperidin-4-yl)methyl)piperazin-1-yl)-2′-oxospiro[cyclopropane-1,3′-indolin]-1′-yl)piperidine-2,6-dione] had an EC50 of 24.1 nM. In addition, on STAT6, the DC50 amounted to 13 nM.
For `CNc1ccn(-c2ccnc3c2cc(CN2CCC(c4c(F)cc(C(=O)N5CCC(CN6CCN(Cc7ccc8c(c7)n(C7CC7)c(=O)n8C7CCC(=O)NC7=O)C[C@@H]6C)CC5)cc4F)CC2)n3C)c(=O)c1` (stereo partly drawn) [Example 3u216, 3-(3-cyclopropyl-5-(((S)-4-((1-(3,5-difluoro-4-(1-((1-methyl-4-(4-(methylamino)-2-oxopyridin-1 (2H)-yl)-1H-pyrrolo[2,3-b]pyridin-2-yl)methyl)piperidin-4-yl)benzoyl)piperidin-4-yl)-methyl)-3-methylpiperazin-1-yl)methyl)-2-oxo-2,3-dihydro-1H-benzo[d]imidazol-1-yl)piperidine-2,6-dione], in that order: 1.5 nM and 3.5 nM.
Consider `CNc1cc(=O)n(-c2ccnc3c2cc(CN2CCC(c4c(F)cc(C(=O)N5CCC(CN6CCN(c7ccc8c(c7)C7(CC7)C(=O)N8C7CCC(=O)NC7=O)CC6)CC5)cc4F)CC2)n3C)cc1F` (centres unmarked) [Example 3u301, 3-(5′-(4-((1-(3,5-difluoro-4-(1-((4-(5-fluoro-4-(methylamino)-2-oxopyridin-1 (2H)-yl)-1-methyl-1H-pyrrolo[2,3-b]pyridin-2-yl)methyl)piperidin-4-yl)benzoyl)piperidin-4-yl)methyl)-piperazin-1-yl)-2′-oxospiro[cyclopropane-1,3′-indolin]-1′-yl)piperidine-2,6-dione], for which it took 90.5 nM to reach a half-maximal effect in experiment [1] (EC50). Also, the Emax on STAT6 (read-out: STAT6 degradation Emax) fell in the range of 20 to 30%.
With `CNc1cc(=O)n(-c2ccnc3c2cc([C@H](C)N2CC=C(c4c(F)cc(C(=O)N5CCC(CN6CCN(Cc7ccc8c(c7)n(C7CC7)c(=O)n8[C@@H]7CCC(=O)NC7=O)C[C@@H]6C)CC5)cc4F)CC2)n3C)cc1F` (single isomer, unassigned) [Example 3u130], a half-maximal effect in experiment [1] (EC50) was put at 1.8 nM. The DC50 on STAT6 worked out at 1.3 nM.
In turn, `CNc1ccn(-c2ccnc3c2cc([C@H](C)N2CCC(c4ccc(C(=O)N5CCC(CN6CCN(Cc7ccc8c(c7)C(C)(C)C(=O)N8[C@@H]7CCC(=O)NC7=O)C[C@@H]6C)CC5)cc4)CC2)n3C)c(=O)c1` (single isomer, unassigned) [Example 3u189] showed an EC50 in experiment [1] of 7.7 nM. The DC50 on STAT6 was 4.7 nM.
On to `CNc1cc(=O)n(-c2ccnc3c2cc(CN2CCC(c4c(F)cc(C(=O)N5CCC(CN6CCN(Cc7ccc8c(c7)C(C)(C)C(=O)N8[C@@H]7CCC(=O)NC7=O)C[C@@H]6C)CC5)cc4F)CC2)n3C)cc1F` (single isomer, unassigned) [Example 3u50], for which, in experiment [1], the response was half-maximal at 30.2 nM (EC50). For the same compound, at STAT6, the DC50 is 0.9 nM.
Regarding `CN(C(=O)c1cc(F)c(C2CCN(Cc3cc4c(-n5cc(F)c6c(c5=O)CCN6)ccnc4n3C)CC2)c(F)c1)c1ccc(C2CCN(Cc3ccc4c(c3)n(C)c(=O)n4C3CCC(=O)NC3=O)CC2)cc1` (centres unmarked) [Example 3u126, N-(4-(1-((1-(2,6-dioxopiperidin-3-yl)-3-methyl-2-oxo-2,3-dihydro-1H-benzo[d]imidazol-5-yl)methyl)piperidin-4-yl)phenyl)-3,5-difluoro-4-(1-((4-(7-fluoro-4-oxo-1,2,3,4-tetrahydro-5H-pyrrolo[3,2-c]pyridin-5-yl)-1-methyl-1H-pyrrolo[2,3-b]pyridin-2-yl)methyl)piperidin-4-yl)-N-methylbenzamide], a half-maximal response in experiment [1] (EC50) required 0.2 nM. Also, the DC50 at STAT6 was 0.4 nM.

Usually EC50 stands for the concentration giving half of the maximal effect. A higher EC50 goes with a need for much substance. Broadly, the DC50 is the concentration giving 50% degradation. The term Emax denotes the size of the effect at its maximum, as opposed to the concentration needed.
